From PubChem BioAssay (NCI) come the findings set out here.

Among the test systems are OVCAR-8 ovarian; HCT-116 colon; SW-620 colon; NCI-H460 lung; PC-3 prostate; MALME-3M melanoma; DU-145 prostate; SK-MEL-28 melanoma; SF-295 CNS; MDA-MB-435; HOP-92 NSCLC; SR leukemia; NCI-H226 lung.
What all share (test): DTP human tumour cell line panel, 48 h

Values joined by “and” are separate entries in the source; they are usually repeats but may differ in a detail not shown here. Equal entries are not always repeated.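 Following 48 hours of exposure in 96-well plates, responses at five concentrations were used to interpolate endpoints linearly. GI50 = concentration required for 50% inhibition of growth. TGI is the concentration that stops growth completely.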 Some results are limits rather than exact numbers.

As to `O=c1c(Sc2ncccn2)c(Sc2ncccn2)cnn1CCl`, the TGI with OVCAR-8 ovarian was 7.53 µM; in the assay on HCT-116 colon it was 3.89 µM; in the assay with SW-620 colon, 17.9 µM; in the assay with NCI-H460 lung it was 32.9 µM; in the assay on PC-3 prostate it was 8.79 µM; with MALME-3M melanoma, 4.25 µM. In addition, the TGI in the assay on DU-145 prostate is 9.23 µM; in the assay on SK-MEL-28 melanoma it was 12.7 µM; in the assay on SF-295 CNS it was 30 µM; with MDA-MB-435, 3.87 µM; in the assay with HOP-92 NSCLC it was 7.38 µM; in the assay with SR leukemia, 12.4 µM. The same compound yielded a TGI with NCI-H226 lung greater than 76.8 µM.
For `O=C(Nc1ccc(S(=O)(=O)Nc2ncccn2)cc1)c1c2ccccc2nc2ccccc12`, the TGI with OVCAR-8 ovarian, with HCT-116 colon, in the assay on SW-620 colon, in the assay with NCI-H460 lung, in the assay on PC-3 prostate and in the assay with MALME-3M melanoma was greater than 100 µM in each case. The TGI in the assay with DU-145 prostate, with SK-MEL-28 melanoma, in the assay on SF-295 CNS, in the assay on MDA-MB-435, in the assay with HOP-92 NSCLC and in the assay on SR leukemia was greater than 100 µM each time. Besides, in the assay on NCI-H226 lung, the TGI is greater than 100 µM.
`CCc1n[nH]c(=S)n1/N=C\c1ccc(-c2ccccc2[N+](=O)[O-])o1`: the TGI with OVCAR-8 ovarian, in the assay with HCT-116 colon, in the assay with SW-620 colon, in the assay on PC-3 prostate, in the assay with MALME-3M melanoma and with DU-145 prostate was greater than 100 µM in each case. The TGI with SF-295 CNS was greater than 100 µM; in the assay with MDA-MB-435, 39.4 µM; in the assay with HOP-92 NSCLC it was greater than 100 µM; in the assay with SR leukemia, 57.8 µM; in the assay on NCI-H226 lung, 54.1 µM.
Consider `C[N+]12CCCCC1C(CN1C(=O)c3ccccc3C1=O)CCC2` (stereo not drawn), for which the TGI with OVCAR-8 ovarian, in the assay on HCT-116 colon, in the assay with SW-620 colon, in the assay on NCI-H460 lung, in the assay with PC-3 prostate and with MALME-3M melanoma was greater than 100 µM each time. Moreover, the TGI in the assay on DU-145 prostate, with SK-MEL-28 melanoma, with SF-295 CNS, in the assay with MDA-MB-435, with HOP-92 NSCLC and in the assay on SR leukemia was greater than 100 µM each time. The compound also displayed a TGI in the assay on NCI-H226 lung greater than 100 µM.
In the case of `Cc1nc(Nc2nc3ccccc3[nH]2)[nH]c(=O)c1CCO`, the TGI in the assay on OVCAR-8 ovarian is greater than 100 µM; with HCT-116 colon, greater than 100 µM; in the assay on SW-620 colon, greater than 100 µM; with NCI-H460 lung it was greater than 100 µM; in the assay on PC-3 prostate it was greater than 100 µM; with MALME-3M melanoma, greater than 71.5 µM. Also, the TGI in the assay with DU-145 prostate, with SK-MEL-28 melanoma, in the assay on SF-295 CNS, in the assay with MDA-MB-435, in the assay on HOP-92 NSCLC and in the assay with SR leukemia was greater than 100 µM throughout. The same compound came in with a TGI in the assay with NCI-H226 lung greater than 96 µM.
With `CC(=O)NC1C(OCc2ccccc2)OC(CO)C(O)C1OCC(=O)N1CCCC1C(=O)NC(CCC(=O)NCCCCCNc1c2ccccc2nc2cccc([N+](=O)[O-])c12)C(N)=O` (stereo not drawn), the TGI in the assay on OVCAR-8 ovarian is 0.0817 µM; with HCT-116 colon it was 0.137 µM; with SW-620 colon, 0.0424 µM; with NCI-H460 lung, 0.0171 µM; with PC-3 prostate, 0.0293 µM; with MALME-3M melanoma it was 0.0425 µM. In addition, the TGI amounted to 0.107 µM in the assay on DU-145 prostate; 0.11 µM with SK-MEL-28 melanoma; 0.724 µM with SF-295 CNS; 0.033 µM in the assay with MDA-MB-435; 0.101 µM in the assay with HOP-92 NSCLC; 5.01 µM in the assay with SR leukemia. In the assay on NCI-H226 lung, this compound came in with a TGI of 0.514 µM.
In the case of `O=C1Nc2ccc(Br)cc2/C1=C/C(=O)c1ccccc1`, the TGI in the assay with OVCAR-8 ovarian came out at 5.31 µM; with HCT-116 colon it was 9.04 µM; with SW-620 colon it was 6.42 µM; in the assay with NCI-H460 lung it was 36.9 µM; with PC-3 prostate, 26.9 µM; in the assay on MALME-3M melanoma it was 16.8 µM. Further, the TGI in the assay with DU-145 prostate is 23.8 µM; in the assay on SK-MEL-28 melanoma, 32.1 µM; in the assay with SF-295 CNS it was 32.5 µM; in the assay on MDA-MB-435, 42 µM; in the assay with HOP-92 NSCLC it was 12.5 µM; in the assay on SR leukemia it was greater than 24.9 µM. The same compound came in with a TGI in the assay with NCI-H226 lung of 43.8 µM.
Turning to `Cc1cc(C(O)CNC(C)CCn2cnc3c2c(=O)n(C)c(=O)n3C)ccc1O` (stereo not drawn), the TGI in the assay on OVCAR-8 ovarian, in the assay on HCT-116 colon, in the assay with SW-620 colon, in the assay with NCI-H460 lung, in the assay on PC-3 prostate and with MALME-3M melanoma was greater than 100 µM throughout. The concentration for total growth inhibition (TGI) in the assay on DU-145 prostate, with SK-MEL-28 melanoma, in the assay on SF-295 CNS, in the assay on MDA-MB-435, in the assay with HOP-92 NSCLC and with SR leukemia was greater than 100 µM throughout. In the assay with NCI-H226 lung, this compound registered a TGI greater than 100 µM.
Consider `CN1CCCC(C(=O)OCC(=O)C2(O)CCC3C4CCC5=CC(=O)CCC5(C)C4C(O)CC32C)C1` (stereo not drawn), for which the TGI is 35.3 µM with OVCAR-8 ovarian; 23.5 µM in the assay with HCT-116 colon; greater than 79.2 µM with SW-620 colon; 28.5 µM in the assay on NCI-H460 lung; 30.7 µM with PC-3 prostate; 33.2 µM in the assay on MALME-3M melanoma. Also, the TGI in the assay with DU-145 prostate was 45.1 µM; with SK-MEL-28 melanoma, 35.4 µM; in the assay on SF-295 CNS, 46.6 µM; in the assay with MDA-MB-435 it was 33.4 µM; with HOP-92 NSCLC it was greater than 100 µM; with SR leukemia, 4.47 µM. The compound also gave a concentration for total growth inhibition (TGI) in the assay on NCI-H226 lung of 33.9 µM.
`C#CC(O)Cc1ccc(OC)c2occc12` (stereo not drawn): the TGI with OVCAR-8 ovarian, with HCT-116 colon, in the assay on SW-620 colon, in the assay with NCI-H460 lung, in the assay with PC-3 prostate and in the assay with MALME-3M melanoma was greater than 100 µM in each case. The TGI in the assay with DU-145 prostate, with SF-295 CNS, in the assay with MDA-MB-435, in the assay on HOP-92 NSCLC, in the assay with SR leukemia and in the assay with NCI-H226 lung was greater than 100 µM each time.
Regarding `C(=N/NC1=NCCN1)/c1c2ccccc2c(/C=N\NC2=NCCN2)c2ccccc12`, the TGI was 1.32 µM and 2.98 µM and 3.42 µM in the assay on OVCAR-8 ovarian; 0.468 µM and 1.18 µM and 1.21 µM with HCT-116 colon; 0.335 µM and 0.33 µM and 0.159 µM in the assay with NCI-H460 lung; 0.348 µM and 0.422 µM in the assay with PC-3 prostate; 0.259 µM and 0.564 µM and 0.477 µM with MALME-3M melanoma; 0.623 µM and 3.43 µM in the assay on DU-145 prostate. Moreover, the TGI with SK-MEL-28 melanoma is 1.01 µM and 1.08 µM and 0.685 µM; in the assay with SF-295 CNS it was 1.98 µM and 2.11 µM and 2.71 µM; with MDA-MB-435, 0.271 µM and 0.477 µM; in the assay on HOP-92 NSCLC, 0.547 µM and 0.967 µM and 0.34 µM; in the assay with SR leukemia, 0.759 µM and 4.29 µM; in the assay on NCI-H226 lung, 0.352 µM and 0.239 µM and 0.445 µM. Moreover, the GI50 in the assay on PC-3 prostate was 0.0776 µM; in the assay on DU-145 prostate, 0.0878 µM; in the assay on MDA-MB-435, 0.155 µM; with SR leukemia, 0.116 µM.
